Results taken from PMC6756013, “B591, a novel specific pan-PI3K inhibitor, preferentially targets cancer stem cells” (Oncogene, 2019).

Legend:
[1] = molecular target: T1, PI3Kγ (p110γ) (Homo sapiens, UniProt P48736); test: In vitro PI3K kinase assay (PI3-Kinase Activity ELISA); assay type: biochemical; details: incubated 30 min at room temperature
T1 construct: purchased Promega
Method: (§1) Purified PI3K Class I Lipid Kinase, including p110α/p85α, p110β/p85α, p110γ, and p110δ/p85α (Promega, Madison, WI, USA), was respectively incubated with B591 for 30 min at room temperature. The activity of PI3K was evaluated using a PI3-Kinase Activity ELISA kit (K-1000s, Echelon, Salt Lake City, UT, USA) according to the manufacture’s instructions. The assay is a competitive ELISA in which the signal is inversely proportional to the amount of PI(3,4,5)P3 produced. After the PI3-Kinase reactions are complete, reaction products are first mixed and incubated with a PI(3,4,5)P3 detector protein, then added to the PI(3,4,5)P3-coated microplate for competitive binding. A peroxidase-linked secondary detector and colorimetric detection is used to detect PI(3,4,5)P3 detector binding to the plate. The colorimetric signal is inversely proportional to the amount of PI(3,4,5)P3 produced by PI3-Kinase. The absorbance was measured at 450 nm with a Multilabel Reader (PerkinElmer, Waltham, MA, USA). ATP competition assays were executed with varying concentrations of ATP, and five concentrations of ATP were 5 μM, 25 μM, 50 μM, 100 μM, and 200 μM respectively. The IC50 values for inhibition of PI3Kβ by B591 were determined at indicated concentrations of ATP. In addition, B591 selectivity was tested against 39 kinases at Life Technologies.

[2] = molecular target: T2, PI3Kδ (p110δ/p85α) (Homo sapiens, UniProt O00329); test: as above; assay type: biochemical; details: incubated 30 min at room temperature
T2 construct: purchased Promega
Method: as §1

[3] = molecular target: T3, PI3Kβ (p110β/p85α) (Homo sapiens, UniProt P42338); test: as above; assay type: biochemical
T3 construct: purchased Promega
T3 sequence (P42338 whole entry): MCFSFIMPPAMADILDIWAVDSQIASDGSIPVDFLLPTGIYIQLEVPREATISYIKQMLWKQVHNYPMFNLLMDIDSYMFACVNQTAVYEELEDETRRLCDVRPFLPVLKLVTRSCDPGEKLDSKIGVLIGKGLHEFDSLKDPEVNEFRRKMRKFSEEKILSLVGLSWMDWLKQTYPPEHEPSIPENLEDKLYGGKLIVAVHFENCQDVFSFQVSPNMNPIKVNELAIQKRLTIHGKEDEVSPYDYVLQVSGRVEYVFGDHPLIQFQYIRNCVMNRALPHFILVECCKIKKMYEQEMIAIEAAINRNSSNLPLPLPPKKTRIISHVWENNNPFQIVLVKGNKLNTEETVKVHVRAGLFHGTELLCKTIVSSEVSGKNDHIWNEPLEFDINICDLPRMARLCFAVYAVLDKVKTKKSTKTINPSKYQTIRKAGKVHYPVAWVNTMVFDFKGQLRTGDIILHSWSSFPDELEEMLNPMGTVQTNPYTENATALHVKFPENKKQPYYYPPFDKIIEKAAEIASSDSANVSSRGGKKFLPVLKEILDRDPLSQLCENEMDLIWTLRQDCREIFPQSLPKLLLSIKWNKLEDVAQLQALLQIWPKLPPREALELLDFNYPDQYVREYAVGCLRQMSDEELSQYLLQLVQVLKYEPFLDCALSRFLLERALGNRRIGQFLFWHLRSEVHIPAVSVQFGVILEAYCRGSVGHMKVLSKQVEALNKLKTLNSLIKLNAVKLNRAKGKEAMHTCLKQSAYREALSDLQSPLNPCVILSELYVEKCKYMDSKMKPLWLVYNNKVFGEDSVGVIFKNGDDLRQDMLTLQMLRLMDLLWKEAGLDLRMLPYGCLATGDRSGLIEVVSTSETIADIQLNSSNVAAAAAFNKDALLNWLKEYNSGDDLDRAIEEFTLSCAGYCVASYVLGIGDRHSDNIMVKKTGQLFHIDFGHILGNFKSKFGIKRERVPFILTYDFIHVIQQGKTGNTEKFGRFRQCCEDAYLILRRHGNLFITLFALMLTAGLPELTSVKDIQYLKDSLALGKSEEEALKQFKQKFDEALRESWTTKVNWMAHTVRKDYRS
T3 sequence (P27986 whole entry partner): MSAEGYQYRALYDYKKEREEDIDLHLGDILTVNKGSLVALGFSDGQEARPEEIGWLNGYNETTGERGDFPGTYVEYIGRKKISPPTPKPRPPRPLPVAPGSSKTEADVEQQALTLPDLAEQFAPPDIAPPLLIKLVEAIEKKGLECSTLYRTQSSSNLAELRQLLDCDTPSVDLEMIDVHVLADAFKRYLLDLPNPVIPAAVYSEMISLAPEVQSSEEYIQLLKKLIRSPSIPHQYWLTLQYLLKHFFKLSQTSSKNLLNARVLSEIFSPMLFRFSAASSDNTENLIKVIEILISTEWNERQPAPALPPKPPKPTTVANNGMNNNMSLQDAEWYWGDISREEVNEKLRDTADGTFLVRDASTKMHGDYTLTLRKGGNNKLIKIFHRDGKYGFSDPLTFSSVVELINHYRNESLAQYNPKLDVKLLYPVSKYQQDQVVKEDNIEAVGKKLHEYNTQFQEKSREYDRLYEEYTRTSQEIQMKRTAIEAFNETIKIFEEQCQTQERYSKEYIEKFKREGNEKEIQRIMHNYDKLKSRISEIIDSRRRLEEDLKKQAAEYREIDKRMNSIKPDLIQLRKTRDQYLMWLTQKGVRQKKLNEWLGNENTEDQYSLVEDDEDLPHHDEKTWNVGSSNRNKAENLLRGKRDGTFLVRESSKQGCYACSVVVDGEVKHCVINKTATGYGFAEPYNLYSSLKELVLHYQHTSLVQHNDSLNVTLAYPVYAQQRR
Method: as §1

[4] = molecular target: T4, PI3Kα (p110α/p85α) (Homo sapiens, UniProt P42336); test: as above; assay type: biochemical; details: incubated 30 min at room temperature
T4 construct: purchased Promega
Method: as §1

[5] = molecular target: T5, ERBB2 (HER2) (Homo sapiens, UniProt P04626); test: Biochemical kinase profiling (Life Technologies)
T5 construct: purchased Life Technologies
Method: as §1

[6] = molecular target: T6, FGFR2 (Homo sapiens, UniProt P21802); test: Biochemical kinase profiling (Life Technologies)
T6 construct: purchased Life Technologies
Method: as §1

[7] = molecular target: T7, EPHB1 (Homo sapiens, UniProt P54762); test: Biochemical kinase profiling (Life Technologies)
T7 construct: purchased Life Technologies
Method: as §1

[8] = molecular target: T8, FGFR4 (Homo sapiens, UniProt P22455); test: Biochemical kinase profiling (Life Technologies)
T8 construct: purchased Life Technologies
Method: as §1

[9] = molecular target: T9, EPHA1 (Homo sapiens, UniProt P21709); test: Biochemical kinase profiling (Life Technologies)
T9 construct: purchased Life Technologies
Method: as §1

[10] = molecular target: PDK1 (Homo sapiens, UniProt O15530); test: Biochemical kinase profiling (Life Technologies)
Method: as §1

[11] = molecular target: AKT1 (PKB alpha) (Homo sapiens, UniProt P31749); test: Biochemical kinase profiling (Life Technologies)
Chain of AKT1 (PKB alpha) (P31749 whole entry): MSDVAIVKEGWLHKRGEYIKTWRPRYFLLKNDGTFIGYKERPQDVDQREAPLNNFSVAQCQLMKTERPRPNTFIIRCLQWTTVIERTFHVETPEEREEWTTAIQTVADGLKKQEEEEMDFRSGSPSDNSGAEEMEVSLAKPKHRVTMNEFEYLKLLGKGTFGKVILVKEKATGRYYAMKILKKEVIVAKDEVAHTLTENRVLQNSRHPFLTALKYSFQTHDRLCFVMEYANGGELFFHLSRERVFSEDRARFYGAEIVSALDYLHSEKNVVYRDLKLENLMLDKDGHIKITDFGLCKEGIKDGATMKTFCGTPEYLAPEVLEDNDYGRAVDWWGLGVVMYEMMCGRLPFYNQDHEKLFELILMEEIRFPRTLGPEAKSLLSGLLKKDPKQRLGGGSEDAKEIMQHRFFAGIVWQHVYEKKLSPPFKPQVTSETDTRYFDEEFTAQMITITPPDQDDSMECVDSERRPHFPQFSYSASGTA
Method: as §1

[12] = molecular target: T10, KDR (VEGFR2) (Homo sapiens, UniProt P35968); test: Biochemical kinase profiling (Life Technologies)
T10 construct: purchased Life Technologies
Method: as §1

[13] = molecular target: AKT3 (PKB gamma) (Homo sapiens, UniProt Q9Y243); test: Biochemical kinase profiling (Life Technologies)
Chain of AKT3 (PKB gamma) (Q9Y243 whole entry): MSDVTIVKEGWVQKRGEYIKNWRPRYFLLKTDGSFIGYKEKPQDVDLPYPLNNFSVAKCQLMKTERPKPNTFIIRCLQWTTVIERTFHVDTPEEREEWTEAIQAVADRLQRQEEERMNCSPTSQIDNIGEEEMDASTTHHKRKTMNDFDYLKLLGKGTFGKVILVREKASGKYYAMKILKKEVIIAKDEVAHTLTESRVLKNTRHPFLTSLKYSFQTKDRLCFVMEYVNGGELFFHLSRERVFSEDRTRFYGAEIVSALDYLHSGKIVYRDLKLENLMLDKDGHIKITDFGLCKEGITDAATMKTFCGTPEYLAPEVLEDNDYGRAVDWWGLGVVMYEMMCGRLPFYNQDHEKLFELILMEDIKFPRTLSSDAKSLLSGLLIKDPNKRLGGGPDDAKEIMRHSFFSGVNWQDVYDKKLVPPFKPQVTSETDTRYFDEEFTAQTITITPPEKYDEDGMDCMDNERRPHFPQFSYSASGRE
Method: as §1

[14] = molecular target: T11, SRC (Homo sapiens, UniProt P12931); test: Biochemical kinase profiling (Life Technologies)
T11 construct: purchased Life Technologies
Method: as §1

[15] = molecular target: LYN A (Homo sapiens, UniProt P07948); test: Biochemical kinase profiling (Life Technologies)
Method: as §1

[16] = molecular target: AKT2 (PKB beta) (Homo sapiens, UniProt P31751); test: Biochemical kinase profiling (Life Technologies)
Method: as §1

[17] = molecular target: PIK3C2A (PI3K-C2 alpha) (Homo sapiens, UniProt O00443); test: Biochemical kinase profiling (Life Technologies)
Method: as §1

[18] = molecular target: T12, PDGFRB (PDGFR beta) (Homo sapiens, UniProt P09619); test: Biochemical kinase profiling (Life Technologies)
T12 construct: purchased Life Technologies
Method: as §1

[19] = molecular target: IGF1R (Homo sapiens, UniProt P08069); test: Biochemical kinase profiling (Life Technologies)
Method: as §1

[20] = molecular target: FYN (Homo sapiens, UniProt P06241); test: Biochemical kinase profiling (Life Technologies)
Method: as §1

[21] = molecular target: PIK3C3 (hVPS34) (Homo sapiens, UniProt Q8NEB9); test: Biochemical kinase profiling (Life Technologies)
Method: as §1

[22] = molecular target: PRKCQ (PKC theta) (Homo sapiens, UniProt Q04759); test: Biochemical kinase profiling (Life Technologies)
Method: as §1

[23] = molecular target: T13, FGFR1 (Homo sapiens, UniProt P11362); test: Biochemical kinase profiling (Life Technologies)
T13 construct: purchased Life Technologies
Method: as §1

[24] = molecular target: T14, RPS6KB1 (p70S6K) (Homo sapiens, UniProt P23443); test: Biochemical kinase profiling (Life Technologies)
T14 construct: purchased Life Technologies
Method: as §1

[25] = molecular target: T15, FLT1 (VEGFR1) (Homo sapiens, UniProt P17948); test: Biochemical kinase profiling (Life Technologies)
T15 construct: purchased Life Technologies
Method: as §1

[26] = molecular target: T16, FGFR3 (Homo sapiens, UniProt P22607); test: Biochemical kinase profiling (Life Technologies)
T16 construct: purchased Life Technologies
Method: as §1

[27] = molecular target: FRAP1 (mTOR) (Homo sapiens, UniProt P42345); test: Biochemical kinase profiling (Life Technologies)
Method: as §1

[28] = molecular target: AMPK A2/B1/G1 (Homo sapiens, UniProt P54619+P54646+Q9Y478); test: Biochemical kinase profiling (Life Technologies)
Chain of AMPK A2/B1/G1 (P54646 whole entry): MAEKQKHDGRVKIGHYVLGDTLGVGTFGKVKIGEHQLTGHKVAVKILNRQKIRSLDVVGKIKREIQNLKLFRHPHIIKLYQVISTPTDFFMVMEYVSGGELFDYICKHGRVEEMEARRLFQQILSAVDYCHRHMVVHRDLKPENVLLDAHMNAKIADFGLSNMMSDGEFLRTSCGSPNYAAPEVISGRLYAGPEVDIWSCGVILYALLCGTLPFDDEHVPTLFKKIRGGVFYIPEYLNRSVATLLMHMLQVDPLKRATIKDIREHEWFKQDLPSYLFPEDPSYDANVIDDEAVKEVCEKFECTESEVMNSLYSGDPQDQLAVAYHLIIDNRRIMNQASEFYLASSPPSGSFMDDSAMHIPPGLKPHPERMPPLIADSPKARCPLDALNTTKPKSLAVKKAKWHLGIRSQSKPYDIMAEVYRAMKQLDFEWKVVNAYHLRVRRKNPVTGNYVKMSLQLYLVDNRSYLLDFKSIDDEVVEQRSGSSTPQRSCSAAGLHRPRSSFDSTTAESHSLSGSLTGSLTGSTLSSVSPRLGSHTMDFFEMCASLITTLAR
Chain of AMPK A2/B1/G1 (Q9Y478 whole entry partner): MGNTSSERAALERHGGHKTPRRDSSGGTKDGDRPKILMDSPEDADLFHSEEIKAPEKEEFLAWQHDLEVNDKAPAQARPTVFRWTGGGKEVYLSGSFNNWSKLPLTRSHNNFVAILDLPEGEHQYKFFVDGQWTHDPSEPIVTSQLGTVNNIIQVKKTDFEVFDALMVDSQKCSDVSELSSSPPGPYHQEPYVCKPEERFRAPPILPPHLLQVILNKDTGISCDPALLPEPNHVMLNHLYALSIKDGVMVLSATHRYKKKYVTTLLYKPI
Chain of AMPK A2/B1/G1 (P54619 whole entry partner): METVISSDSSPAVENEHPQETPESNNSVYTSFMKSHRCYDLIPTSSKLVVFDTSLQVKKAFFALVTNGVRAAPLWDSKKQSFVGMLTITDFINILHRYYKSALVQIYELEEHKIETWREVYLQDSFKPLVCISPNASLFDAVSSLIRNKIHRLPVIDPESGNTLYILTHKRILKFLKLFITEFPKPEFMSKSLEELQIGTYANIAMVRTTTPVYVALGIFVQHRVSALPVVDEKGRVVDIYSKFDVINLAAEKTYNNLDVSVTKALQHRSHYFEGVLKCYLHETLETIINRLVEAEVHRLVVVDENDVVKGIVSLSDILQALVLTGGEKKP
Method: as §1

[29] = molecular target: T17, EGFR (ErbB1) (Homo sapiens, UniProt P00533); test: Biochemical kinase profiling (Life Technologies)
T17 construct: purchased Life Technologies
Method: as §1

[30] = molecular target: SYK (Homo sapiens, UniProt P43405); test: Biochemical kinase profiling (Life Technologies)
Method: as §1

[31] = molecular target: AMPK A1/B1/G1 (Homo sapiens, UniProt P54619+Q13131+Q9Y478); test: Biochemical kinase profiling (Life Technologies)
Method: as §1

[32] = molecular target: DNA-PK (Homo sapiens, UniProt P78527); test: Biochemical kinase profiling (Life Technologies)
Method: as §1

[33] = molecular target: PIK3C2B (PI3K-C2 beta) (Homo sapiens, UniProt O00750); test: Biochemical kinase profiling (Life Technologies)
Method: as §1

T1 sequence (P48736 whole entry): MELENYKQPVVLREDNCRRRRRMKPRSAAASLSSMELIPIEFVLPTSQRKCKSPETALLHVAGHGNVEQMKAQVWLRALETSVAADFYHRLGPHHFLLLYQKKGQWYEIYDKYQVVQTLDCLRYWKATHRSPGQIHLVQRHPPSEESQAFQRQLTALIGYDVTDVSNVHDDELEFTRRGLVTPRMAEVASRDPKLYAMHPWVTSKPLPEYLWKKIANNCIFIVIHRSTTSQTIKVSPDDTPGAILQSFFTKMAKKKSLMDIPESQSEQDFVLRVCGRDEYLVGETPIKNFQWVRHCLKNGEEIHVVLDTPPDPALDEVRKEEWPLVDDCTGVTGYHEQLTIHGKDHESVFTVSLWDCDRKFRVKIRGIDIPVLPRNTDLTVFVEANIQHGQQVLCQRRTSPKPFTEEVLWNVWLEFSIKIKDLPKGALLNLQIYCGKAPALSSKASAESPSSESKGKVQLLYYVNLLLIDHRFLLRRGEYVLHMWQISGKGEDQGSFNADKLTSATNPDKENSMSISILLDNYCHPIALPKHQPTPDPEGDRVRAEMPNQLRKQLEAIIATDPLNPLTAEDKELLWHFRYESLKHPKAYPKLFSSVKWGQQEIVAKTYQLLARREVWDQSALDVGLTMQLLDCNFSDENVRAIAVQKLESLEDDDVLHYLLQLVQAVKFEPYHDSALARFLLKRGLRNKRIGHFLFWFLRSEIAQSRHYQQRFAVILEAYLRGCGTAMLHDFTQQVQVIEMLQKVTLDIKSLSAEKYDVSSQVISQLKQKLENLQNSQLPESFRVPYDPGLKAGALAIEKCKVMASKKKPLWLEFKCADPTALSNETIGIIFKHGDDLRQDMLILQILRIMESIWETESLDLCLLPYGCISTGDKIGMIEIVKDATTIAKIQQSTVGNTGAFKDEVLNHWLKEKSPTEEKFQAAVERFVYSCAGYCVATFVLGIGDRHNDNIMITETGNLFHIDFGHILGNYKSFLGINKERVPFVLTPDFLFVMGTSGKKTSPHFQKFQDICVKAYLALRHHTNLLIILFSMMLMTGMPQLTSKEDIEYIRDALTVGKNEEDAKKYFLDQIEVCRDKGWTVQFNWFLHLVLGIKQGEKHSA

Cc1cc2c(cc1C)[n+](Cc1ccccc1Br)cn2Cc1ccc2c(c1)CCO2.[Br-] [B591, 3-(2-bromobenzyl)-1-((2,3-dihydrobenzofuran-5-yl)methyl) -5,6-dimethyl-1H-benzo[d]imidazol-3-ium bromide]
IC50 [1]: 0.107 ± 0.07 µM | IC50 [2]: 1.58 ± 0.16 µM | Mode of inhibition (IC50 for PI3Kβ at various concentrations of ATP) ([3]; ATP 5, 25, 50, 100 and 200 μM): ATP-competitive inhibitor | IC50 ([3]; PI3-Kinase Activity ELISA, incubated 30 min at room temperature): 0.364 ± 0.13 µM | IC50 [4]: 1.3 ± 0.27 µM | IC50 [5]: > 500 µM | IC50 [6]: > 500 µM | IC50 [7]: > 500 µM | IC50 [8]: > 500 µM | IC50 [9]: > 500 µM | IC50 [10]: > 500 µM | IC50 [11]: > 500 µM | IC50 [12]: > 500 µM | IC50 [13]: > 500 µM | IC50 [14]: > 500 µM | IC50 [15]: > 500 µM | IC50 [16]: > 500 µM | IC50 [17]: 177 µM | IC50 [18]: > 500 µM | IC50 [19]: > 500 µM | IC50 [20]: > 500 µM | IC50 [21]: 102 µM | IC50 [22]: > 500 µM | IC50 [23]: > 500 µM | IC50 [24]: > 500 µM | IC50 [25]: > 500 µM | IC50 [26]: > 500 µM | IC50 [27]: > 500 µM | IC50 [28]: > 500 µM | IC50 [29]: > 500 µM | IC50 [30]: > 500 µM | IC50 [31]: > 500 µM | IC50 [32]: 448 µM | IC50 [33]: 91 µM
